The values below are quoted from earlier work in US20230321091A1, “SUBSTITUTED PYRIDAZINONES FOR USE IN THE TREATMENT OF NEUROMUSCULAR DISEASES” (Edgewise Therapeutics, Inc., priority 2020, published 2023).

The data set concerns embryos from zebrafish model of DMD.

Turning to `Cc1ccc(S(=O)(=O)NCc2ccccc2)cc1` [BTS, N-benzyl-p-tolyl-sulfonamide], the “protection of muscles from pathological muscle derangement” value is “protect muscles from pathological muscle derangement”.
